Key:
[1] = molecular target: T1, wt human JAK1, catalytic site (Homo sapiens, UniProt P23458); assay: HTRF KinEASE assay, JAK1; format: biochemical; conditions: 2.5 μM ATP; read-out: IC50, Activity Toward JAK1
T1 construct: wt human JAK1, catalytic site; purchased ThermoFisher
How it was run: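 Compounds in DMSO dilution were mixed with kinase, biotin-TK substrate and ATP and reacted for ≥30 min at room temperature. Detection reagents (antibody, streptavidin-XL665) were read 60 min later as HTRF, with emission ratios analysed per KinEASE protocol.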

[2] = molecular target: T2, wt human JAK2, catalytic site (Homo sapiens, UniProt O60674); assay: HTRF KinEASE assay, JAK2; format: biochemical; conditions: assay format not given (Z'-LYTE or HTRF KinEASE); read-out: IC50, Activity Toward JAK2
T2 construct: wt human JAK2, catalytic site; purchased SignalChem
Procedure: Basic protocol for HTRF KinEASE assay (Cisbio/FRA) inhibitor studies involved two steps: • Enzymatic step: Addition of 4 μL of test compound in corresponding DMSO dilutions, 4 μL of kinase/substrate mixture, 2 μL of ATP into 384 well small volume plates. Incubation for at least 30 minutes at room temperature. • Detection step: Addition of 5 μL antibody and 5 μL streptavidin-XL665, read plate after 60 minutes. Data analysis of emission ratios according KinEASE assay protocol.
(§1) Kinase and assay components were adjusted to final concentrations according to kit protocol. For TYK2: 2 nM wt human TYK2, catalytic site (SignalChem/CAN), 1 μM HTRF KinEASE-TK Substrate-biotin, 1 μM ATP in 1× Kinase Buffer. For JAK1: 4 nM wt human JAK1, catalytic site (ThermoFisher/USA), 1 μM HTRF KinEASE-TK Substrate-biotin, 2.5 μM ATP in 1× Kinase Buffer. For JAK2: 1 nM wt human JAK2, catalytic site (SignalChem/CAN), 1 μM HTRF KinEASE-TK Substrate-biotin, 100 μM ATP in 1× Kinase Buffer.
as §1

[3] = molecular target: T3, G2019S human LRRK2, catalytic site (Homo sapiens, UniProt Q5S007, G2019S); assay: TR-FRET LanthaScreen Eu Kinase Binding Assay, LRRK2 G2019S; conditions: LRRK2(G2019); one range stated for wt and G2019; read-out: IC50, Activity Toward LRRK2(G2019)
T3 construct: G2019S human LRRK2, catalytic site; purchased ThermoFisher
How it was run: (§2)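 Each kinase was incubated with compound, 2 nM europium-labelled antibody and Tracer 236 for one hour at room temperature before plate reading. LRRK2 wt and G2019S used 5 nM protein and 10 nM tracer; NUAK1 used 8 nM protein and 5 nM tracer.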

[4] = molecular target: T4, wt human LRRK2, catalytic site (Homo sapiens, UniProt Q5S007); assay: TR-FRET LanthaScreen Eu Kinase Binding Assay, LRRK2 wt; conditions: one range stated for wt and G2019, read-out: IC50, Activity Toward LRRK2(Wt)
T4 construct: 5 nM wt human LRRK2, catalytic site; purchased ThermoFisher
How it was run: as §2

[5] = molecular target: T5, wt human NUAK1, full length (Homo sapiens, UniProt O60285); assay: TR-FRET LanthaScreen Eu Kinase Binding Assay, NUAK1; conditions: read-out: IC50, Activity Toward NUAK1
T5 construct: 8 nM wt human NUAK1, full length (ThermoFisher/USA); purchased ThermoFisher
T5 sequence (O60285 1-661): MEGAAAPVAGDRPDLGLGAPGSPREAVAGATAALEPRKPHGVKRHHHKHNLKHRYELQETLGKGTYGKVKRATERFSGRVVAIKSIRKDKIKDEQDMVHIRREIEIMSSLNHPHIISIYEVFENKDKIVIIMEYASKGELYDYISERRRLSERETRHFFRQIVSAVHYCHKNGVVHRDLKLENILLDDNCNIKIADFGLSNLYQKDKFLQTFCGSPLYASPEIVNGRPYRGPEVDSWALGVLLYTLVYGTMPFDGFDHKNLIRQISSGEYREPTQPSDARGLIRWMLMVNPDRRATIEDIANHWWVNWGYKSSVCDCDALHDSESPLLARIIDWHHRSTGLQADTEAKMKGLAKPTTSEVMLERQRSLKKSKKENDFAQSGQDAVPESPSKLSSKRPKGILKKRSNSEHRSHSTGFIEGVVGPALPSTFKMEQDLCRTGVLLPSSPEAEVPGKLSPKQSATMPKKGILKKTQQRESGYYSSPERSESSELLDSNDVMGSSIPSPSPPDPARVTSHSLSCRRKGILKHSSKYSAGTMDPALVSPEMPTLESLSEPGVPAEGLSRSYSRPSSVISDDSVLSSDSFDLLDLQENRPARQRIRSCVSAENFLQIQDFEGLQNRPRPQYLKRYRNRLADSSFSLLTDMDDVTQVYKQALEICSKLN
How it was run: as §2

[6] = molecular target: T6, wt human TYK2, catalytic site (Homo sapiens, UniProt P29597); assay: HTRF KinEASE assay, TYK2; format: biochemical; conditions: 1 μM ATP; read-out: IC50, Activity Toward TYK2
T6 construct: wt human TYK2, catalytic site; purchased SignalChem
T6 sequence (P29597 897-1176 limits assumed): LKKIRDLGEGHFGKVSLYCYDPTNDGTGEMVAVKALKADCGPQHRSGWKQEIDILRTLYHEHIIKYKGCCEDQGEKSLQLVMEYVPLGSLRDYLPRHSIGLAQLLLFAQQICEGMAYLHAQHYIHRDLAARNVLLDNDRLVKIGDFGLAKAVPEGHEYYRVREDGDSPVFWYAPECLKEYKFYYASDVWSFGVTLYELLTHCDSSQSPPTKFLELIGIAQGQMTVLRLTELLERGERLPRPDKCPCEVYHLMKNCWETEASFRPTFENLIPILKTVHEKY
How it was run: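 Kinase reaction run at room temperature for at least 30 min: 2 nM TYK2 with 1 μM ATP, or 1 nM JAK2 with 100 μM ATP, each with 1 μM biotin-TK substrate. Phosphorylation detected by HTRF (60 min antibody/XL665) and evaluated from emission ratios.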

T4 sequence (Q5S007 970-2527 limits assumed): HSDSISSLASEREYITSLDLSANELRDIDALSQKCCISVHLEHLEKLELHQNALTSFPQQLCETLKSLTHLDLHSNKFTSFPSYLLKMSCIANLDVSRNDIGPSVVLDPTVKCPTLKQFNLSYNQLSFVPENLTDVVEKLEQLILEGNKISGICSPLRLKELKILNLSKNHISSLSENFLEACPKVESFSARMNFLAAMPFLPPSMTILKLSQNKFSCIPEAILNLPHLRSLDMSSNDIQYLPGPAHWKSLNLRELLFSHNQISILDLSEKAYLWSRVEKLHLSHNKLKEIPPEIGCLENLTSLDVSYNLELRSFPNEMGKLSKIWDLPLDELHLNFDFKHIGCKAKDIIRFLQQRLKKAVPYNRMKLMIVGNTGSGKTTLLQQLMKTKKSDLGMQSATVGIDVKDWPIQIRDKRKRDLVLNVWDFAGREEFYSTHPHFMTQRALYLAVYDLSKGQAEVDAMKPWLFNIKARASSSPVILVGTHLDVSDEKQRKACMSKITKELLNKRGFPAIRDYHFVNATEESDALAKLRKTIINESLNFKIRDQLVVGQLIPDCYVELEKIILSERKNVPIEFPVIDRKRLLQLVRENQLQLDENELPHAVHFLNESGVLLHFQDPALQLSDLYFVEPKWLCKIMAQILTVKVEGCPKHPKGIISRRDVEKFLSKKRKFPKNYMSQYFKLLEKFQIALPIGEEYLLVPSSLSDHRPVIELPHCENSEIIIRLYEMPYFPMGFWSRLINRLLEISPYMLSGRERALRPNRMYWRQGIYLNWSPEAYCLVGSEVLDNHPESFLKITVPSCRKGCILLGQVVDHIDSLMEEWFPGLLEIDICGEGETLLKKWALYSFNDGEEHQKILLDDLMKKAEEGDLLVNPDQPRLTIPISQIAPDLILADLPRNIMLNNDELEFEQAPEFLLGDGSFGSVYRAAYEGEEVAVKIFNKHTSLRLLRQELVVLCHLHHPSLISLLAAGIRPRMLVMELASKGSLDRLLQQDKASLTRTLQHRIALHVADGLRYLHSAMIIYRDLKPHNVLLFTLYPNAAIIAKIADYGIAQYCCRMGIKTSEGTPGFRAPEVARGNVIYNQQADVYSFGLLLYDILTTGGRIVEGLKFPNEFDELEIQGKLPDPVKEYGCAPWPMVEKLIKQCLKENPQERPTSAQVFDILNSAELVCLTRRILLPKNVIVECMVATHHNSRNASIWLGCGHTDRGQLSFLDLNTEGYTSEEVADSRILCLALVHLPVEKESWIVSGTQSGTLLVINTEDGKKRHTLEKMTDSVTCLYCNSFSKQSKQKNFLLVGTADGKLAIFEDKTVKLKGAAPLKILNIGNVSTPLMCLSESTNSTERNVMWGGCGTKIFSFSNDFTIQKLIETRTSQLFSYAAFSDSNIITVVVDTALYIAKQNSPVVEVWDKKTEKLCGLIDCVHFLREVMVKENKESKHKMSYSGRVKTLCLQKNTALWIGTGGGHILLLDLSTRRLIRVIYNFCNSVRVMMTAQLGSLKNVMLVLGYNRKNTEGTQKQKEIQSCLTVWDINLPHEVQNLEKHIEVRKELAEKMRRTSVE
T3 sequence (Q5S007 970-2527 G2019S limits assumed): as the sequence (Q5S007 970-2527 limits assumed) above, with G1050S counted along it
T2 sequence (O60674 849-1124 limits assumed): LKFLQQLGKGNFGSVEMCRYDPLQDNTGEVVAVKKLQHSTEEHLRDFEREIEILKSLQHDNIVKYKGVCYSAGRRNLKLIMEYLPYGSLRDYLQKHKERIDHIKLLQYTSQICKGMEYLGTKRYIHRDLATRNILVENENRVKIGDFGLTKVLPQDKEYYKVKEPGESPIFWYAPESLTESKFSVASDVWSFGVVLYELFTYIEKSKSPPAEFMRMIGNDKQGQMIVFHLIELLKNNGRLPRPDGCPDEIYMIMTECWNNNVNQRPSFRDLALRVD
T1 sequence (P23458 875-1153 limits assumed): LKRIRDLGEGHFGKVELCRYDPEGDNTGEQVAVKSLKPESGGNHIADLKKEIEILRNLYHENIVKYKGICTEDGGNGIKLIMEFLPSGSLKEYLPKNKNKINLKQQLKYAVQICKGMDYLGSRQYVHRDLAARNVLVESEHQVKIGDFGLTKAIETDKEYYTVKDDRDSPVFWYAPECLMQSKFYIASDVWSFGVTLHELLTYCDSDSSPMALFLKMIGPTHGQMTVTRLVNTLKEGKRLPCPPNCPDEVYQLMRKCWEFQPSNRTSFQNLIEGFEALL

IC50 [1] | IC50 [2] | IC50 [3] | IC50 [4] | IC50 [5] | IC50 [6] | Compound
100 to 1000 nM | 100 to 1000 nM | 10 to 100 nM | 10 to 100 nM | 100 to 1000 nM | 10 to 100 nM | NC(=O)c1nn(-c2c(F)cccc2F)cc1Nc1ccc(C(=O)N2CCOCC2)cc1 [compound 12, 1-(2,6-difluorophenyl)-4-((4-(morpholine-4-carbonyl)phenyl)amino)-1H-pyrazole-3-carboxamide]
100 to 1000 nM | 100 to 1000 nM | 100 to 1000 nM | 100 to 1000 nM | 10 to 100 nM | 10 to 100 nM | NC(=O)c1nn(-c2c(F)cccc2F)cc1Nc1ccc(C(=O)NC2CCOCC2)cc1 [compound 13, 1-(2,6-difluorophenyl)-4-((4-((tetrahydro-2H-pyran-4-yl)carbamoyl)phenyl)amino)-1H-pyrazole-3-carboxamide]
10 to 100 nM | 100 to 1000 nM | 100 to 1000 nM | 100 to 1000 nM | 10 to 100 nM | < 10 nM | NC(=O)c1nn(-c2c(F)cccc2Cl)cc1Nc1ccc(C(=O)N2CCOCC2)cc1 [compound 22, 1-(2-chloro-6-fluorophenyl)-4-((4-(morpholine-4-carbonyl)phenyl)amino)-1H-pyrazole-3-carboxamide]
10 to 100 nM | 100 to 1000 nM | 10 to 100 nM | 10 to 100 nM | 100 to 1000 nM | < 10 nM | CN1CCN(C(=O)c2ccc(Nc3cn(-c4c(F)cccc4Cl)nc3C(N)=O)cc2)CC1 [compound 36, 1-(2-chloro-6-fluorophenyl)-4-((4-(4-methylpiperazine-1-carbonyl)phenyl)amino)-1H-pyrazole-3-carboxamide]
< 10 nM | 100 to 1000 nM |  |  | 100 to 1000 nM | < 10 nM | NC(=O)c1nn(-c2c(Cl)cccc2Cl)nc1Nc1ccc(C(=O)N2CCOCC2)cc1 [compound 101, 2-(2,6-Dichloro-phenyl)-5-[4-(morpholine-4-carbonyl)-phenylamino]-2H-[1,2,3]triazole-4-carboxylic acid amide]
< 10 nM | 100 to 1000 nM |  |  | 100 to 1000 nM | < 10 nM | CN1CCN(C(=O)c2ccc(Nc3nn(-c4c(Cl)cccc4Cl)nc3C(N)=O)cc2)CC1 [compound 102, 2-(2,6-Dichloro-phenyl)-5-[4-(4-methyl-piperazine-1-carbonyl)-phenylamino]-2H-[1,2,3]triazole-4-carboxylic acid amide]
10 to 100 nM | 100 to 1000 nM |  |  | 100 to 1000 nM | 10 to 100 nM | NC(=O)c1nn(-c2c(Cl)cccc2Cl)nc1Nc1ccc(-c2nnn[nH]2)cc1 [compound 103, 2-(2,6-Dichloro-phenyl)-5-[4-(1H-tetrazol-5-yl)-phenylamino]-2H-[1,2,3]triazole-4-carboxylic acid amide]
10 to 100 nM | 100 to 1000 nM |  |  | 100 to 1000 nM | < 10 nM | Cn1nnnc1-c1ccc(Nc2nn(-c3c(Cl)cccc3Cl)nc2C(N)=O)cc1 [compound 104]
< 10 nM | 100 to 1000 nM |  |  | 100 to 1000 nM | < 10 nM | CN(C)[C@H]1CCN(C(=O)c2ccc(Nc3nn(-c4c(Cl)cccc4Cl)nc3C(N)=O)cc2)C1 [compound 105, 2-(2,6-Dichloro-phenyl)-5-[4-((S)-3-dimethylamino-pyrrolidine-1-carbonyl)-phenylamino]-2H-[1,2,3]triazole-4-carboxylic acid amide]
10 to 100 nM | 100 to 1000 nM |  |  | 100 to 1000 nM | < 10 nM | NC(=O)c1nn(-c2c(Cl)cccc2Cl)nc1Nc1ccc(C(=O)N2CC[C@@H](F)C2)cc1 [compound 106, 2-(2,6-Dichloro-phenyl)-5-[4-((R)-3-fluoro-pyrrolidine-1-carbonyl)-phenylamino]-2H-[1,2,3]triazole-4-carboxylic acid amide]
10 to 100 nM | 100 to 1000 nM | 100 to 1000 nM | 100 to 1000 nM |  | < 10 nM | Cc1cnnn1-c1ccc(Nc2nn(-c3c(Cl)cccc3Cl)nc2C(N)=O)cc1 [compound 131, 2-(2,6-dichlorophenyl)-5-((4-(5-methyl-1H-1,2,3-triazol-1-yl)phenyl)amino)-2H-1,2,3-triazole-4-carboxamide]
10 to 100 nM | 100 to 1000 nM |  |  | 100 to 1000 nM | < 10 nM | CC(C)Cn1cnnc1-c1ccc(Nc2cn(-c3c(Cl)cccc3Cl)nc2C(N)=O)cc1 [compound 203, 1-(2,6-dichlorophenyl)-4-((4-(4-isobutyl-4H-1,2,4-triazol-3-yl)phenyl)amino)-1H-pyrazole-3-carboxamide]
10 to 100 nM | 100 to 1000 nM | 100 to 1000 nM | 100 to 1000 nM |  | 10 to 100 nM | CCc1cnncc1-c1ccc(Nc2cn(-c3c(Cl)cccc3Cl)nc2C(N)=O)cc1 [compound 322, 1-(2,6-dichlorophenyl)-4-((4-(5-ethylpyridazin-4-yl)phenyl)amino)-1H-pyrazole-3-carboxamide]
10 to 100 nM | 100 to 1000 nM | 100 to 1000 nM | 100 to 1000 nM |  | < 10 nM | NC(=O)c1nn(-c2c(Cl)cccc2Cl)cc1Nc1ccc(-n2ncnc2C2COC2)cc1 [compound 347, 1-(2,6-dichlorophenyl)-4-((4-(5-(oxetan-3-yl)-1H-1,2,4-triazol-1-yl)phenyl)amino)-1H-pyrazole-3-carboxamide]
10 to 100 nM | 100 to 1000 nM | 100 to 1000 nM | 100 to 1000 nM |  | < 10 nM | CCn1cnnc1-c1ccc(Nc2cn(-c3c(Cl)cc(F)cc3Cl)nc2C(N)=O)cc1 [compound 414, 1-(2,6-dichloro-4-fluorophenyl)-4-((4-(4-ethyl-4H-1,2,4-triazol-3-yl)phenyl)amino)-1H-pyrazole-3-carboxamide]
10 to 100 nM | 100 to 1000 nM | 100 to 1000 nM | 100 to 1000 nM |  | < 10 nM | NC(=O)c1nn(-c2c(Cl)cccc2Cl)cc1Nc1ccc(C(=O)N2CC(F)C2)cc1 [compound 425, 1-(2,6-dichlorophenyl)-4-((4-(3-fluoroazetidine-1-carbonyl)phenyl)amino)-1H-pyrazole-3-carboxamide]

— patent publication US20230373985A1 (Origenis Gmbh, priority 2020, published 2023)
